Reference: ChEMBL document CHEMBL5728686, “MK2 inhibitors and uses thereof” (2021)

Molecular target: MAP kinase-activated protein kinase 2 (Homo sapiens, UniProt P49137)
Assay: Kinase reactions were started with the addition of 40 μL of MK-2 enzyme and monitored every 71 seconds for 30-240 minutes at λex360/λem485 in a Synergy2, Synergy4 or Synergy H4 plate reader from BioTek (Winooski, Vt.). […] Initial velocity (0 minutes to +30 minutes) from each reaction was estimated from the slope of a plot of relative fluorescence units vs time (minutes) and normalized to the no enzyme and no inhibitor control groups for % Inhibition. The resulting % Inhibition values were then plotted against inhibitor concentration to estimate IC50 from log[Inhibitor] vs Response, Variable Slope model in GraphPad Prism from GraphPad Software (San Diego, Calif.).

Sequence of MAP kinase-activated protein kinase 2 (P49137 whole entry): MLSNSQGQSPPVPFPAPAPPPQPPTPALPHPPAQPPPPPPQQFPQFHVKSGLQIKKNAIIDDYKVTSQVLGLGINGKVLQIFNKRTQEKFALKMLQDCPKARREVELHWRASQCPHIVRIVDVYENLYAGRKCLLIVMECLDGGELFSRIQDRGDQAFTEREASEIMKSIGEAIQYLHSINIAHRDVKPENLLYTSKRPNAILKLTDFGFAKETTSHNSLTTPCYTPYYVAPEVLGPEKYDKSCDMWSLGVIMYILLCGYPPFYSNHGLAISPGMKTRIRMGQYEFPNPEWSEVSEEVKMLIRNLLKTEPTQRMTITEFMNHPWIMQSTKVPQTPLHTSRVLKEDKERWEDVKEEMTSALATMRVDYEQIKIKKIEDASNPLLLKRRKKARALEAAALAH

| EC50 [µM] | IC50 [µM] | Compound |
| --- | --- | --- |
| < 0.1 | < 0.1 | C=CC(=O)Nc1cc(NC(=O)c2ccc3sc4c(c3c2)NC[C@@H](C)NC4=O)ccc1C1CCN(C)CC1 |
| – | < 0.1 | C=CC(=O)N1CCOc2ccc(-c3cc4c(cn3)CCc3c-4[nH]c4c3C(=O)NCC4)cc21 |
| < 0.1 | < 0.1 | C=CC(=O)Nc1cc(-c2cc3c(ccc4c5c([nH]c43)CCC5=O)cn2)ccc1C |
